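Compound exposure: 48 hours, 5 concentrations, 96-well plates. At the GI50, growth is halved. TGI: concentration producing complete growth inhibition.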 Some results are limits rather than exact numbers.

Here are results for 39 molecules from PubChem BioAssay (NCI).

Holding throughout (test): inhibition of tumour cell growth, NCI panel, 48 h
Assay [1] has as its system MDA-N.
Assay [2] concerns DMS 114 small cell lung.
Assay [3] concerns LXFL 529 NSCLC.
The test system of assay [4] is HOP-18 NSCLC.
The subject of assay [5] is M19-MEL melanoma.
The test system of assay [6] is SNB-78 CNS.
Assay [7] concerns XF 498 CNS.
In assay [8] the test system is KM20L2 colon.
Assay [9] concerns RXF-631 renal.

`CC(=O)N1c2ccccc2Sc2cc(C(O)(C(F)(F)F)C(F)(F)F)ccc21` returned a TGI in assay [1] of over 10 µM.

As to `CC1=Cc2cc3[n-]c(cc4nc(cc5[n-]c(cc1n2)cc5C)C(C)=C4CCC(=O)O)c(CCC(=O)O)c3C.[Pd+2]`, the GI50 in assay [1] was over 100 µM; in assay [2], 3.18 µM; in [3], 2.86 µM; in [4], 15.8 µM; in [5] it was 3.64 µM; in assay [6], 6.17 µM. Moreover, the GI50 was 14.2 µM in assay [7] and 17.5 µM in assay [8]. Also, the TGI was over 100 µM in assay [1]; 11.2 µM in assay [2]; 11.1 µM in [3]; 30.6 µM in assay [4]; 20.5 µM in assay [5]; 28.7 µM in assay [6]. Also, the TGI is 31.5 µM in assay [7] and 44.3 µM in [8].

For `COC(=O)c1ccc(N=NN(C)CO)cc1`, the TGI in [2] is over 100 µM; in assay [3], over 100 µM; in [5], over 100 µM; in [6] it was over 100 µM; in [7], 9.97 µM; in assay [8], over 100 µM.

For the molecule `O=C1C(=O)N(c2ccc(Cl)c(Cl)c2)C(=O)C(=O)C1c1nc2ccccc2o1`, the TGI in assay [3], in assay [5], in assay [9], in assay [6], in [7] and in [8] was over 100 µM each time.

Take `COc1ccc2ccc([Se]c3ccc4ccc(OC)cc4c3)cc2c1`: the TGI in assay [2], in assay [3], in assay [4], in assay [5], in assay [6] and in assay [7] was over 100 µM in each case. Further, the TGI in assay [8] was over 100 µM.

As to `CCOC(=O)CC1=CSC2=NCCN12`, the TGI in [2], in assay [3], in [4], in [5], in assay [9] and in assay [6] was over 100 µM each time. For the same molecule, the TGI in assay [7] and in [8] was over 100 µM throughout.

Consider `O=C(O)C12C3CCCC1C2CC3` (stereo unspecified), for which the TGI in assay [2], in assay [3], in [4], in assay [5], in assay [9] and in assay [6] was over 100 µM throughout. Moreover, the TGI in assay [7] and in assay [8] was over 100 µM in each case.

Turning to `CC1NOC(=O)C1N=Nc1ccccc1Cl` (stereo unspecified), the TGI in assay [2] is over 100 µM; in assay [3], over 100 µM; in assay [4] it was over 100 µM; in assay [5], 60.4 µM; in assay [9] it was over 100 µM; in assay [6], over 100 µM. Further, the TGI in assay [7] and in [8] was over 100 µM throughout.

On to `COC(=O)Nc1nc2ccccc2c(=O)[nH]1`, for which the TGI in assay [1] turned out to be 50.8 µM.

On to `C[C@H]1CCC/C=C/[C@@H]2C[C@H](O)C[C@H]2[C@H](O)[C@@H](S(=O)CCN(C)C)CC(=O)O1` (stereo partly specified), for which, in [1], the GI50 is 0.228 µM and the TGI is over 100 µM.

For the molecule `C[C@]12CCC(=O)C(O)=C1CC[C@@H]1[C@@H]2CC[C@]2(C)C(=O)CC[C@@H]12`, the TGI in [1], in assay [2], in [3], in assay [9], in assay [6] and in assay [7] was over 100 µM each time. Further, the TGI in [8] was over 100 µM.

For the molecule `C=C1CC[C@@H]2C(C)(C)CCC[C@@]2(C)[C@@H]1Cc1cc(O)ccc1O`, the TGI in [2] stood at 4.1 µM; in assay [3] it was 6.68 µM; in [4], 30 µM; in assay [5] it was 11 µM; in assay [6], 5.25 µM; in assay [8] it was 32.8 µM.

Consider `CS(=O)c1ccc(COP(N)(=O)N(CCCl)CCCl)cc1` (stereo unspecified), for which the TGI in assay [2], in assay [3], in assay [5], in assay [6], in [7] and in assay [8] was over 100 µM each time.

Take `c1ccc(N=C2c3ccccc3C3=NCCCN32)cc1`: the TGI in assay [2], in assay [3], in [5], in [9], in [6] and in assay [7] was over 100 µM in each case. Besides, in [8], the TGI was over 100 µM.

Regarding `O=[N+]([O-])C1C2C=CC(C2)[C@H]1c1ccccc1Cl` (stereo partly specified), the TGI in [3], in [4], in [9], in assay [6], in [7] and in assay [8] was over 100 µM throughout.

For the molecule `CCOC(=O)c1ccc(N2C(=O)/C(=C\OC)c3ccccc3C2=O)cc1`, the TGI in assay [2] was over 100 µM; in [3], 89.1 µM; in assay [5] it was over 100 µM; in [6], over 100 µM; in [8] it was over 100 µM.

With `CN(c1ccccc1)C(c1ccccc1)C(O)c1ccccc1` (stereo unspecified), the TGI came to 47.5 µM in assay [2]; 43.4 µM in [3]; 33.2 µM in assay [4]; 42.4 µM in assay [5]; 43.2 µM in assay [9]; 59.6 µM in [6]. Besides, the TGI in [8] was 35.7 µM.

On to `CC(C(=O)Oc1ccc2ccccc2c1-c1c(O)ccc2ccccc12)c1ccccc1` (stereo unspecified), for which the TGI came to 29.6 µM in assay [2]; 27.1 µM in assay [3]; 30.6 µM in assay [5]; 33.7 µM in assay [9]; 33.9 µM in [6]; 27.3 µM in assay [7].

As for `ON=C1CCC(c2ccccc2)CC1` (stereo unspecified), the TGI in assay [2], in assay [3], in assay [4], in [5], in assay [6] and in assay [7] was over 100 µM in each case. Besides, the TGI in [8] was over 100 µM.

Turning to `CCOC(=O)C(=O)Nc1c(N(CC)CC)n2ccccc2nc1=O`, the TGI in assay [2], in assay [3], in assay [5], in [9], in assay [6] and in assay [7] was over 100 µM in each case. In [8], this molecule registered a TGI of over 100 µM.

As for `COc1ccc(/C=C2/C[N+](C)(C)C/C(=C/c3ccc(OC)cc3)C2=O)cc1`, the TGI is over 69.3 µM in assay [2]; over 100 µM in assay [3]; over 100 µM in [4]; 69.4 µM in [5]; over 100 µM in assay [6]; over 100 µM in assay [7]. For the same molecule, the TGI in [8] is over 100 µM.

As for `COC(=O)C(Nc1ccc(OC)cc1)c1ccccc1` (stereo unspecified), the TGI in assay [1] was over 100 µM.

For `O=S1(=O)C[C@@H](O)[C@H](O)CS1`, the TGI in assay [2], in assay [3], in assay [4], in assay [5], in [6] and in assay [7] was over 100 µM in each case. The molecule further showed a TGI in assay [8] of over 100 µM.

Regarding `C=C1C(=O)OC2CC3(CO3)C3C(O)C(O)CC3(C)CC12` (stereo unspecified), in assay [1], the TGI is 81.6 µM.

For the molecule `O=C(O)c1cc2c(cn1)[nH]c1ccccc12`, the TGI in assay [2], in assay [3], in [4], in assay [5], in assay [6] and in assay [8] was over 100 µM in each case.

On to `CC(C)(O)C1OCC(C2CCC3(C)C4=CCC5C(C)(C)C(O)CCC5(C)C4CCC23C)CC1O` (stereo unspecified), for which the TGI in [1] is 41.8 µM.

The molecule `COc1c(O)ccc2c1CN1CCc3cc4c(cc3C1C2)OCO4` (stereo unspecified) yielded a TGI in [1] of over 80.8 µM.

On to `COC(=O)c1nc(NC#N)[nH]c(=O)c1C`, for which the TGI in assay [2], in assay [3], in [4], in assay [5], in assay [9] and in assay [6] was over 100 µM in each case. The same molecule displayed a TGI in assay [8] of over 100 µM.

Turning to `O=C(c1ccccc1)c1c(C(=O)c2ccccc2)c(-c2ccccc2)c2c(-c3ccccc3)sc(-c3ccccc3)c2c1-c1ccccc1`, the TGI in [2], in assay [3], in assay [5], in assay [9], in assay [6] and in assay [7] was over 100 µM in each case. This molecule also yielded a TGI in [8] of over 100 µM.

Consider `O=C1C(=O)c2ccccc2C(O)=C1C(CCc1ccccc1)C1=C(O)c2ccccc2C(=O)C1=O`, for which, in [1], the TGI was found to be 34.3 µM.

Turning to `CC(=O)OC(C)(C)/C=C/C(=O)[C@](C)(O)[C@H]1[C@H](O)C[C@@]2(C)[C@@H]3CC=C4[C@@H](C[C@H](O)C(=O)C4(C)C)[C@]3(C)C(=O)C[C@]12C`, the TGI in assay [1] is 2.39 µM.

Turning to `Nc1c(-c2nc3ccccc3[nH]2)sc(=S)n1-c1ccccc1`, the TGI in assay [2], in [3], in [5], in assay [9] and in [6] was over 100 µM throughout.

`Cn1c(=O)c2[nH]c(CS(=O)(=O)Cc3nc4c([nH]3)c(=O)n(C)c(=O)n4C)nc2n(C)c1=O` registered a TGI in assay [1] of over 100 µM.

Molecule `CN(C)c1ccc2c3c(c(=O)oc2c1)CCC3` came in with a TGI in [1] of over 100 µM.

In the case of `CCOC(=O)C(C)c1cc(C2(C)OCCO2)c(C)o1` (stereo unspecified), the TGI in assay [2], in assay [3], in assay [4], in [5], in [9] and in assay [6] was over 100 µM each time. In addition, the TGI in [7] and in assay [8] was over 100 µM throughout.

Turning to `Cc1c2cc[nH]c(=O)c2cc2c(=O)c3cnccc3[nH]c12`, the TGI in [2], in assay [3], in [4], in [5], in [6] and in assay [8] was over 100 µM in each case.

As to `N.N.NC(CS)C(=O)[O-].NC(CS)C(=O)[O-].[Pt+4]` (stereo unspecified), the GI50 in [3], in assay [4], in assay [6] and in assay [8] was over 50 µM in each case. For the same molecule, the TGI in assay [3], in assay [4], in assay [6] and in [8] was over 50 µM in each case.

For `O=C1OC2(c3ccccc3Oc3ccccc32)c2ccccc21`, the TGI in assay [2], in assay [3], in assay [4], in assay [5], in assay [6] and in assay [8] was over 100 µM each time.

Take `CCOC(CN=c1nc(N(C)C)ss1)OCC`: the TGI in assay [1] was 24.8 µM; in assay [2], 32.9 µM; in [3] it was 20.5 µM; in [4], over 100 µM; in assay [5], 19.1 µM; in [9] it was 32.5 µM. For the same molecule, the TGI is 51.5 µM in assay [6], 47.1 µM in assay [7] and over 72.5 µM in assay [8].
